Data from BigSolDB 2.1.

COc1ccccc1N1CCN(CC(O)COc2cccc3ccccc23)CC1 (stereo not given)
solubility (mole fraction)
Settings | 288.15 K | 293.15 K | 298.15 K | 303.15 K | 308.15 K | 313.15 K | 318.15 K | 323.15 K | 328.15 K
in DMSO | – | 0.0283 | 0.0323 | 0.0367 | 0.0416 | 0.0468 | 0.0527 | 0.059 | 0.066
in ethanol | 0.00142 | 0.00163 | 0.00189 | 0.00216 | 0.00244 | 0.00277 | 0.00314 | 0.00355 | 0.00397
in isopropanol | 0.000714 | 0.000827 | 0.000959 | 0.00111 | 0.00127 | 0.00145 | 0.00165 | 0.00186 | 0.00213
in water | 2.07e-06 | 2.69e-06 | 3.46e-06 | 4.43e-06 | 5.65e-06 | 7.05e-06 | 8.85e-06 | 1.09e-05 | 1.37e-05
